Measured values taken from ChEMBL document CHEMBL1671667, “Impact of low-level resistance to fluoroquinolones due to qnrA1 and qnrS1 genes or a gyrA mutation on ciprofloxacin bactericidal activity in a murine model of Escherichia coli urinary tract infection” (Antimicrob Agents Chemother, 2009).
Values after ≈ are worked out from the molar mass of the structure shown.

Experiments:
Klebsiella pneumoniae = test: Antimicrobial activity against qnr-negative Klebsiella pneumoniae C2 harboring qnrA1 gene
in vivo = details: CBA, mouse, sc, 2.5 mg/kg
Description: Cmax in immunocompetent CBA mouse infected with Escherichia coli at 2.5 mg/kg, sc administered as single dose after 15 mins by liquid chromatography

O=C(O)c1cn(C2CC2)c2cc(N3CCNCC3)c(F)cc2c1=O [CIPROFLOXACIN]
MIC (Klebsiella pneumoniae): 4 µg/mL (≈ 12.1 µM)
Cmax at 0.25 h (in vivo): 1100 ng/mL
